Data: ChEMBL document CHEMBL1157022, “Synthesis, cytotoxicity and DNA-binding of novel bisnaphthalimidopropyl derivatives in breast cancer MDA-MB-231 cells” (Eur J Med Chem, 2010)

Assays:
[1] = Cytotoxicity against human MCF10A cells after 48 hrs by MTT assay; type: cell-based; settings: MCF-10A
[2] = system: Nucleic Acid; experiment: Displacement of ethidium bromide from calf thymus DNA assessed as decrease of fluorescence of bound ethidium bromide by fluorometric assay; type: nucleic-acid assay; settings: Bos taurus
[3] = Cytotoxicity against human MCF10A cells after 24 hrs by MTT assay; type: cell-based; settings: MCF-10A
[4] = system: MDA-MB-231; experiment: Cytotoxicity against human MDA-MB-231 cells after 48 hrs by MTT assay; type: functional, cell-based; settings: MDA-MB-231, 48 h
[5] = system: Nucleic Acid; experiment: Binding affinity to calf thymus DNA assessed as temperature required to cause 50% of DNA denatured at 10 uM by thermal denaturation assay; type: nucleic-acid assay; settings: Bos taurus
[6] = system: MDA-MB-231; experiment: Cytotoxicity against human MDA-MB-231 cells after 24 hrs by MTT assay; type: functional, cell-based; settings: MDA-MB-231, 24 h
[7] = system: CHO-MG; experiment: Cytotoxicity against MGBG polyamine transporter deficient CHO-MG cells after 48 hrs by MTT assay; type: ADME, cell-based; settings: Cricetulus griseus
[8] = system: MGBG polyamine transporter; experiment: Ratio of IC50 for MGBG polyamine transporter deficient CHO-MG cells to IC50 for CHO cells expressing MGBG polyamine transporter; type: cell-based, Cricetulus griseus; settings: chinese hamster; read-out: Ratio IC50
[9] = system: CHO; experiment: Cytotoxicity against CHO cells expressing MGBG polyamine transporter after 48 hrs by MTT assay; type: ADME, cell-based; settings: Cricetulus griseus
[10] = system: MCF7; experiment: Cytotoxicity against human MCF7 cells after 48 hrs; type: functional, cell-based; settings: MCF7, 48 h
[11] = system: MDA-MB-231; experiment: Drug uptake in human MDA-MB-231 cells at 10 uM after 0.5 hrs by fluorescence microscopic analysis; type: ADME, cell-based; settings: mda-mb-231, 0.5 h
[12] = system: MDA-MB-231; experiment: Drug uptake in human MDA-MB-231 cells at 10 uM after 6 hrs by fluorescence microscopic analysis; type: ADME, cell-based; settings: mda-mb-231, 6 h

SMILES	IC50 [1] [µM]	C50 [2] [µM]	IC50 [3] [µM]	IC50 [4] [µM]	Tm [5] [°C]	IC50 [6] [µM]	IC50 [7] [µM]	selectivity ratio [8]	IC50 [9] [µM]	IC50 [10] [µM]	Drug uptake [11]	Drug uptake [12]
O=C1c2ccccc2C(=O)N1CCCNCCCCCCCCCCNCCCN1C(=O)c2ccccc2C1=O	> 40	> 10	> 40	> 40	72	> 40	–	–	–	–	–	–
O=C1c2cccc3cccc(c23)C(=O)N1CCCNCCCCNCCCN1C(=O)c2cccc3cccc(c23)C1=O	5.67	1.5	8.1	5.12	89.2	7.86	–	–	–	–	–	–
O=C1c2cccc3cccc(c23)C(=O)N1CCCNCCCCCCCCCCNCCCN1C(=O)c2cccc3cccc(c23)C1=O [BNIPDADEC]	2.82	1.8	2.77	3.32	84.4	4.85	–	–	–	–	–	–
CC(/C=N/NC(=N)N)=N\NC(=N)N [MITOGUAZONE]	–	–	–	–	–	–	> 100	> 30.2	3.3	–	–	–
O=C1c2cccc3cccc(c23)C(=O)N1CCCNCCCNCCCCNCCCNCCCN1C(=O)c2cccc3cccc(c23)C1=O	–	–	–	–	–	–	–	–	–	1.38	–	–
COc1cccc2c1C(=O)c1c(O)c3c(c(O)c1C2=O)C[C@@](O)(C(=O)CO)C[C@@H]3O[C@H]1C[C@H](N)[C@H](O)[C@H](C)O1 [DOXORUBICIN]	0.18	–	0.75	3.61	86.4	14.3	–	–	–	–	–	–
O=C1c2cccc3cccc(c23)C(=O)N1CCCNC1CCCC(CC2CCCC(NCCCN3C(=O)c4cccc5cccc(c45)C3=O)C2)C1 (configuration not stated)	5.71	3.8	6.06	6.06	87.4	6.84	6.3	1	6.2	–	–	–
O=C1c2cccc3cccc(c23)C(=O)N1CCCNCCCCCCNCCCN1C(=O)c2cccc3cccc(c23)C1=O	0.83	1.5	0.84	4.54	91.9	7.22	–	–	–	–	–	–
O=C1c2cccc3cccc(c23)C(=O)N1CCCNCCCCCCCCCCCCNCCCN1C(=O)c2cccc3cccc(c23)C1=O	6.83	3.4	4.17	6.88	81.2	5.11	–	–	–	–	–	–
CN1CCN(c2ccc3[nH]c(-c4ccc5[nH]c(-c6ccc(O)cc6)nc5c4)nc3c2)CC1	–	–	–	–	78.8	–	–	–	–	–	–	–
Br.O=C1c2cccc3cccc(c23)C(=O)N1CCCNCCCCCCCCNCCCN1C(=O)c2cccc3cccc(c23)C1=O	0.87	1.7	2.77	2.68	88.7	4.99	5.1	0.9	5.8	–	Active	–
Br.O=C1c2cccc3cccc(c23)C(=O)N1CCCNCCCCNCCCNCCCN1C(=O)c2cccc3cccc(c23)C1=O [BISNAPHTHALIMIDOPROPYL SPERMIDINE TRIHYDROBROMIDE]	3.97	1.4	4.19	4.59	91.5	12.7	74.6	1	76.5	1.38	–	Active
NCCCN1C(=O)c2cccc3cccc(c23)C1=O [NAPHTHALIMIDOPROPYLAMINE]	> 40	> 10	> 40	> 40	66.3	> 40	–	–	–	–	–	–
Br.O=C1c2cccc3cccc(c23)C(=O)N1CCCNCCOCCOCCNCCCN1C(=O)c2cccc3cccc(c23)C1=O	2.27	1.9	6.1	6.15	87.9	12.4	26.9	0.4	76.1	–	–	Active
O=C1c2c(O)ccc(O)c2C(=O)c2c(NCCNCCO)ccc(NCCNCCO)c21	–	–	–	–	91	–	–	–	–	–	–	–
